Laboratory results from patent US20180038871A1, “DIAGNOSTIC BIOMARKER TO IDENTIFY WOMEN AT RISK FOR PRETERM DELIVERY” (CEDARS-SINAI MEDICAL CENTER, priority 2009, published 2018).
“Also recorded” adds a separate entry of the source.

System: Peripheral blood mononuclear cells (PBMC)
Assay: LPS-induced cytokine expression profile in PBMC with or without cortisol pretreatment (Bioplex)
Format: cell-based, human
Parameters: key to Cortisol Effect on IFN-g secretion level / LPS Effect on IFN-g secretion level / Cortisol Effect on TNF-a secretion level / Cortisol Effect on GM-CSF secretion level / LPS Effect on GM-CSF secretion level / Cortisol Effect on IL-2 secretion level / LPS Effect on IL-2 secretion level / Cortisol Effect on IL-4 secretion level / Cortisol Effect on IL-10 secretion level: n/c = No Change
Description: Peripheral blood mononuclear cells (PBMC) from non-pregnant (at least 5-6 years post-partum) women with history of preterm or full term delivery, in addition to the microbial component lipopolysaccharide (LPS)-induced cytokine expression profile were examined. PBMC were separated from whole blood using Ficoll gradient. The cells were counted and equal numbers of cells were plated in 24 well plates. PBMC were treated with cortisol (50 or 300 ug/ml) or media for 1 hour prior to stimulation with LPS (0, 1, or 100 ug/ml) for 24 hours.
The PBMC were lysed and the supernatant was examined for inflammatory and anti-inflammatory cytokine expression by using Bioplex technology (Bio-rad).
In this study two patients were preterm and four were full term. There were 9 samples per patient (3×3 design) and all samples from each patient were analyzed twice for cytokine concentrations with the exception of one full term subject who only had one analysis of each sample. As a result there are a total of 99 observations for each cytokine measured. The assay simultaneously measured concentrations of 11 inflammatory markers: IL-1ra (IL1-receptor antagonist), IL-2, IL-4, IL-5, IL-8, IL-10, IL-12, IL-13, GM-CSF, IFN-g, and TNF-a.
All raw data was tested via the Kolmogorov-Smirnov test to determine if the data followed a normal distribution. Log-transformations were performed for all data found to have a non-normal distribution prior to further statistical analysis. For each cytokine, a mixed effects model was used to examine all data for significant effects with the outcome variable as the cytokine concentration; the fixed predictor variables as LPS concentration, cortisol concentration, and delivery status (pre- or full-term); and the random effect due to the replicate data points. To test the interaction of the three fixed predictor variables on cytokine concentration, both first and second level interactions ware added to each cytokine model. Post-hoc testing was performed using a Student's t-test.
Using the same mixed model regression, estimated group means and standard errors were calculated. Differences between preterm and full-term pregnancies were considered significant where p <0.10.

[1] = 0 or 300 ug/ml cortisol pretreatment 1 hour, 0 or 1 ug/ml LPS 24 hours, mixed modeling
[2] = 0 or 300 ug/ml cortisol pretreatment 1 hour, 0 or 1 ug/ml LPS 24 hours, mixed modeling, listed as cortisol
[3] = all 99 observations, 300 ug/ml vs 50 ug/ml cortisol
[4] = 0 or 1 ug/ml LPS 24 hours, 0 or 300 ug/ml cortisol pretreatment, mixed modeling

C[C@]12CCC(=O)C=C1CC[C@@H]1[C@@H]2[C@@H](O)C[C@@]2(C)[C@H]1CC[C@]2(O)C(=O)CO [Cortisol, cortisol]
Cortisol Effect on GM-CSF secretion level [1]: n/c, p = .51
Cortisol Effect on IFN-g secretion level [1]: n/c, p = .10
Cortisol Effect on IL-1ra secretion level [1]: decrease, p = .03
Cortisol Effect on IL-2 secretion level [1]: n/c, p = .80
Cortisol Effect on IL-4 secretion level [1]: n/c, p = .26
Cortisol Effect on IL-10 secretion level [1]: n/c, p = .12
Cortisol Effect on IL-13 secretion level [1]: decrease, p = .01
Cortisol Effect on TNF-a secretion level [1]: n/c, p = .41
Cortisol Effect on IL-1ra secretion level [2]: suppress secretion
Cortisol Effect on IL-13 secretion level [2]: suppress secretion
Suppression of IL-1ra level, 300 ug/ml cortisol compared with 50 ug/ml [3]: more significant effect to suppress cytokine levels
Suppression of IL-10 level, 300 ug/ml cortisol compared with 50 ug/ml [3]: more significant effect to suppress cytokine levels
Suppression of IL-13 level, 300 ug/ml cortisol compared with 50 ug/ml [3]: more significant effect to suppress cytokine levels

lipopolysaccharide [LPS]
LPS Effect on GM-CSF secretion level [4]: n/c, p = .19
LPS Effect on IFN-g secretion level [4]: n/c, p = .17
LPS Effect on IL-1ra secretion level [4]: increased secretion; also recorded: increase, p = .09
LPS Effect on IL-2 secretion level [4]: n/c, p = .50
LPS Effect on IL-4 secretion level [4]: increased secretion; also recorded: increase, p = .07
LPS Effect on IL-10 secretion level [4]: increased secretion; also recorded: increase, p = .01
LPS Effect on IL-13 secretion level [4]: increased secretion; also recorded: increase, p = .04
LPS Effect on TNF-a secretion level [4]: increased secretion; also recorded: increase, p = .04
Difference between the effects of 1 ug/ml and 100 ug/ml LPS, all cytokines measured (all 99 observations, 1 ug/ml vs 100 ug/ml LPS): no significant difference
